Experimental findings from US7855292B2, “Sulfonamide compounds” (Janssen Pharmaceutica NV, priority 2004, dated 2010) are described below.

The target of one assay is T1, CCK-1 receptor (Homo sapiens, UniProt P32238).
T1 construct: expressed in transfected cells; host or cells: CHO-K1
T1 sequence (P32238 1-428): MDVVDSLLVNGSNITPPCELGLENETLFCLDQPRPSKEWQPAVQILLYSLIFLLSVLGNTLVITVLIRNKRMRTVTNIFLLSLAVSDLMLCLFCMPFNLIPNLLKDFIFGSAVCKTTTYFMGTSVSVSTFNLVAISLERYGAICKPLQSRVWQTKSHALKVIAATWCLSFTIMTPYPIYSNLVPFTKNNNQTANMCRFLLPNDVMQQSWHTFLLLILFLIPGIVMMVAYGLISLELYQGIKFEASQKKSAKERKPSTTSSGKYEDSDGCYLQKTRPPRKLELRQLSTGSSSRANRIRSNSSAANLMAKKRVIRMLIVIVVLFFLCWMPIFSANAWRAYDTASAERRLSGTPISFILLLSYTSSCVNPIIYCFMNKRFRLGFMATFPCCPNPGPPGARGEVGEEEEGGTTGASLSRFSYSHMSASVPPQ
The assay is described as follows: CCK1 binding assay ([125I]-BH-CCK-8S displacement, CHO-K1 membranes). Particulars: membranes of CHO-K1 cells stably transfected with the CCK-1 receptor, 20 pM [125I]-BH-CCK-8S, 0.3 μM PD-134,308 present, 60 min at 21±3° C. In outline:
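Membranes from CHO-K1 cells stably expressing CCK-1 incubated 1 h at 21±3° C with 20 pM [125I]-BH-CCK-8S in HEPES buffer pH 7.2 containing 0.3 μM PD-134,308 to block CCK-2. Bound radioactivity read by gamma counting after filtration. pKi derived via Cheng-Prusoff, with specific binding defined using 2-NAP.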

The target in another assay is T2, CCK2 receptor (Homo sapiens, UniProt P32239).
T2 construct: analyzed for ZFP expression as well as CCK2R induction upon addition of doxycycline to the culture medium; endogenous in cells
T2 sequence (P32239 1-447): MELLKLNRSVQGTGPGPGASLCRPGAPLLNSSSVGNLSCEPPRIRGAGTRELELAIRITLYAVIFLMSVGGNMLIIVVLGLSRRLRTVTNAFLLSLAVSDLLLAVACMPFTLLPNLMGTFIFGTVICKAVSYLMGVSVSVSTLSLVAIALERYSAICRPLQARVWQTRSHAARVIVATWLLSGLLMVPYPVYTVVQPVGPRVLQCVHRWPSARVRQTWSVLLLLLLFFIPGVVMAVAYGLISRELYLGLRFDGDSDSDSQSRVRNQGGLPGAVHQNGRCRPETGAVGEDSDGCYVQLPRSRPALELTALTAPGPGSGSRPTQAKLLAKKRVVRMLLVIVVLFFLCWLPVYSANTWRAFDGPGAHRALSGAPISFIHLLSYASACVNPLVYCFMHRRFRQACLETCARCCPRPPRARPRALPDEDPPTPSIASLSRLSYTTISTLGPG
The assay is described as follows: CCK2 binding assay ([125I]-BH-CCK-8S displacement, HEKZFP membranes). The following applies: membranes of doxycycline-induced HEKZFP cells, 20 pM [125I]-BH-CCK-8S, 60 min at 21±3° C.

Each structure is given as a SMILES string.

`O=C(N[C@@H](Cc1ccc(F)c(Br)c1)C(=O)O)c1ccc(Br)cc1NS(=O)(=O)c1cccc2nsnc12` [Example 162, (S)-2-[2-(Benzo[1,2,5]thiadiazole-4-sulfonylamino)-4-bromo-benzoylamino]-3-(3-bromo-4-fluoro-phenyl)-propionic acid]: the “CCK1 pKi” value on CCK-1 receptor worked out at 6.6. For the same compound, the “CCK2 pKi” value on CCK2 receptor worked out at 8.2.
Take `CCOC(=O)[C@H](Cc1ccc(F)c(Br)c1)NC(=O)c1cc(Cl)c(Cl)cc1NS(=O)(=O)c1cccc2nsnc12` [Example 163, (S)-2-[2-(Benzo[1,2,5]thiadiazole-4-sulfonylamino)-4,5-dichloro-benzoylamino]-3-(3-bromo-4-fluoro-phenyl)-propionic acid ethyl ester]: the Ki at CCK-1 receptor (read-out: CCK1 pKi (converted)) is 126 nM; at CCK2 receptor (read-out: CCK2 pKi (converted)) it was 398 nM.
